Data as given in US11168067B2, “Substituted quinazoline compound having blood-brain barrier penetration capability” (WEISHANG (SHANGHAI) BIO-PHARMACEUTICAL CO., LTD., priority 2016, dated 2021).

Columns and labels:
[1] = Blood-brain barrier penetration (brain tissue to plasma concentration ratio); format: in vivo; conditions: rat, rats, four hours after dosing
Experimental: To determine whether the compound was able to cross the blood-brain barrier (BBB), the rats were administered with the test compound. Four hours after dosing, rats were sacrificed, blood and brain tissue were collected and the concentration of the test compound was analyzed. Brain permeation is defined as the ratio of the concentration of the compound in the brain tissue to the concentration in the plasma. P-glycoprotein is the blood-brain barrier efflux protein, […].

PC-9 tumor cell = test: CellTiter-Glo (CTG) cell viability assay, PC-9 tumor cell growth inhibition; conditions: for IC50: Homo sapiens, PC-9, 72 h, read-out: PC-9 tumor cell growth inhibition IC50; for inhibiting PC-9 tumor cell growth compared with Iressa: PC-9 cells, cell viability assay
Experimental: Cell viability of tumor cells with EGFR-activated mutations (exon 19-deficient Exon 19 Del) protein was detected using CellTiter-Glo (CTG) assay; about 5000 cells were seeded in each blank 96-well plate, 16 hours later, add the proportionally diluted compound, equilibrated at room temperature for 72 hours after the addition of the drug for 30 minutes. 100 μl of CellTiter-Glo reagent was added to each well and the orbital shaker was mixed for 2 minutes to induce cell lysis. The plate was incubated at room temperature for 10 minutes to stabilize the luminescence signal. The TECAN Infinite M1000 Pro instrument records the luminescence signal.

P-glycoprotein = P-glycoprotein (Homo sapiens, UniProt P08183); test: P-glycoprotein efflux substrate; format: in vitro ADME
PC-9-luc tumor cells = test: Efficacy study on intracranial animal model (PC-9-luc); format: in vivo; conditions: Iressa human equivalent dose, 8 mice per group
Text: The injection was slowly preceded over a one-minute period. Upon completing injection, the needle was retained for another minute. After the needle removal, the hole was sealed with bone wax and the incision was closed. The tumor growth was monitored by image analysis. On Day 10, mice were randomized into 5 groups (8 mice per group) and start the treatments for three weeks.
The tumor growth was monitored by bioiluminense intensity. […] The survival benefits (no death or bodyweight loss less than 18%) treatment with compound X disclosed in table 3.

Sequence of P-glycoprotein (P08183 whole entry): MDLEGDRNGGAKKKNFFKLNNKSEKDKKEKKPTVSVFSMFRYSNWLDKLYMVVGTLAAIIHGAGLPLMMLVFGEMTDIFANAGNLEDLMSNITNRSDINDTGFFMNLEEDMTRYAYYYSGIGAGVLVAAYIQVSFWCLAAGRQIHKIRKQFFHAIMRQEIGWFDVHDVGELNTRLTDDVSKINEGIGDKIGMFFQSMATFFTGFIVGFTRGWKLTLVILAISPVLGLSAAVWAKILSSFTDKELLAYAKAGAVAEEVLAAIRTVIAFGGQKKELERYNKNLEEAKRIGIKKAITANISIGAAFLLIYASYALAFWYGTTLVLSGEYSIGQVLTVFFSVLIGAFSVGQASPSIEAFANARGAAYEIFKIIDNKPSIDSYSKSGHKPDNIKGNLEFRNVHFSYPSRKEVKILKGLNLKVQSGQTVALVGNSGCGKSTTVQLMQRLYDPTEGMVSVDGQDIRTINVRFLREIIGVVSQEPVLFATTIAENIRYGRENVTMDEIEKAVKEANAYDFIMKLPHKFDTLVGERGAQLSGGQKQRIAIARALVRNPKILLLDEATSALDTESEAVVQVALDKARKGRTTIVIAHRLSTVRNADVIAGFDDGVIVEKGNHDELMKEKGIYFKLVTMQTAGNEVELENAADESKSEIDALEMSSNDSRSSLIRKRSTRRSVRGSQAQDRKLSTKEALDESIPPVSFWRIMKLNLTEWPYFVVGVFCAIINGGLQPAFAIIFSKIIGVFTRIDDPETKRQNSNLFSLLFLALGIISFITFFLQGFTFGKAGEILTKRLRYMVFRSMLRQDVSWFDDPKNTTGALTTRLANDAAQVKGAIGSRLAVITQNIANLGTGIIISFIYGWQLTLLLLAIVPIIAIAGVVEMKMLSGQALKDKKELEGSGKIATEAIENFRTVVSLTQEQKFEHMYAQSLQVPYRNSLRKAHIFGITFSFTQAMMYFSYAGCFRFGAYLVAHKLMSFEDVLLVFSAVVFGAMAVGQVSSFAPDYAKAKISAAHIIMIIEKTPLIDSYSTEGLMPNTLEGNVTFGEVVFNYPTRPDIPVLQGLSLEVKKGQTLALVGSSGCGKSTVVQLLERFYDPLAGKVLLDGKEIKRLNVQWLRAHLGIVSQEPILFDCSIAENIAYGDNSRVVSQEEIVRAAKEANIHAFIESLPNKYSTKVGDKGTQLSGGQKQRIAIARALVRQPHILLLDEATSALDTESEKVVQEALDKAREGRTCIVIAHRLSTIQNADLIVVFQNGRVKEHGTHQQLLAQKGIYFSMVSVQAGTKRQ

Kp at 4 h [1]	IC50 (PC-9 tumor cell)	SMILES	also measured
> 0.3	< 1 nM	[2H]C([2H])([2H])Oc1cc2ncnc(Nc3ccc(F)c(Cl)c3F)c2cc1O[C@@H]1CCN(C2COC2)CC1(F)F [Compound 27, (R)—N-(3-chloro-2,4-difluorophenyl)-6-((3,3-difluoro-1-(oxetan-3-yl)piperidin-4-yl)oxy)-7-(methoxy-d3)quinazolin-4-amine]	
> 0.3	< 1 nM	COc1cc2ncnc(Nc3ccc(F)c(Cl)c3F)c2cc1O[C@H]1CCN(C2COC2)CC1(F)F [Compound 25, (S)—N-(3-chloro-2,4-difluorophenyl)-6-((3,3-difluoro-1-(oxetan-3-yl)piperidin-4-yl)oxy)-7-methoxyquinazolin-4-amine]	
> 0.3	< 1 nM	[2H]C([2H])([2H])Oc1cc2ncnc(Nc3cccc(Cl)c3F)c2cc1O[C@@H]1CCN(C2COC2)CC1(F)F [Compound 15, (R)—N-(3-chloro-2-fluorophenyl)-6-((3,3-difluoro-1-(oxetan-3-yl)piperidin-4-yl)oxy)-7-(methoxy-d3)quinazolin-4-amine]	
> 0.3	< 1 nM	COc1cc2ncnc(Nc3cccc(Cl)c3F)c2cc1O[C@H]1CCN(C2COC2)CC1(F)F [Compound 13, (S)—N-(3-chloro-2-fluorophenyl)-6-((3,3-difluoro-1-(oxetan-3-yl)piperidin-4-yl)oxy)-7-methoxyquinazolin-4-amine]	
> 0.3	< 1 nM	COc1cc2ncnc(Nc3ccc(F)c(Cl)c3F)c2cc1OC1CCN(C2COC2)CC1(F)F (racemic) [Compound 7, (R/S)—N-(3-chloro-2,4-difluorophenyl)-6-((3,3-difluoro-1-(oxetan-3-yl)piperidin-4-yl)oxy)-7-methoxyquinazolin-4-amine]	inhibiting PC-9 tumor cell growth compared with Iressa (PC-9 tumor cell): more effective than Iressa
> 0.3	< 1 nM	[2H]C([2H])([2H])Oc1cc2ncnc(Nc3cccc(Cl)c3F)c2cc1O[C@H]1CCN(C2COC2)CC1(F)F [Compound 17, (S)—N-(3-chloro-2-fluorophenyl)-6-((3,3-difluoro-1-(oxetan-3-yl)piperidin-4-yl)oxy)-7-(methoxy-d3)quinazolin-4-amine]	
> 0.3	< 1 nM	COc1cc2ncnc(Nc3cccc(Cl)c3F)c2cc1OC1CCN(C2COC2)CC1(F)F (racemic) [Compound 1, (R/S)—N-(3-chloro-2-fluorophenyl)-6-((3,3-difluoro-1-(oxetan-3-yl)piperidin-4-yl)oxy)-7-methoxyquinazolin-4-amine]	inhibiting PC-9 tumor cell growth compared with Iressa (PC-9 tumor cell): more effective than Iressa
> 0.3	< 1 nM	[2H]C([2H])([2H])Oc1cc2ncnc(Nc3ccc(F)c(Cl)c3F)c2cc1O[C@H]1CCN(C2COC2)CC1(F)F [Compound 29, (S)—N-(3-chloro-2,4-difluorophenyl)-6-((3,3-difluoro-1-(oxetan-3-yl)piperidin-4-yl)oxy)-7-(methoxy-d3)quinazolin-4-amine]	
> 0.3		C#Cc1c(F)ccc(Nc2ncnc3cc(OC)c(O[C@H]4CCN(C5COC5)CC4(F)F)cc23)c1F [Compound 26, (S)-6-((3,3-difluoro-1-(oxetan-3-yl)piperidin-4-yl)oxy)-N-(3-ethynyl-2,4-difluorophenyl)-7-methoxyquinazolin-4-amine]	
> 0.3	< 1 nM	COc1cc2ncnc(Nc3ccc(F)c(Cl)c3F)c2cc1O[C@@H]1CCN(C2COC2)CC1(F)F [Compound 23, (R)—N-(3-chloro-2,4-difluorophenyl)-6-((3,3-difluoro-1-(oxetan-3-yl)piperidin-4-yl)oxy)-7-methoxyquinazolin-4-amine]	
> 0.3		[2H]C([2H])([2H])Oc1cc2ncnc(Nc3cccc(C#C)c3F)c2cc1O[C@@H]1CCN(C2COC2)CC1(F)F [Compound 16, (R)-6-((3,3-difluoro-1-(oxetan-3-yl)piperidin-4-yl)oxy)-N-(3-ethynyl-2-fluorophenyl)-7-(methoxy-d3)quinazolin-4-amine]	
> 0.3		C#Cc1cccc(Nc2ncnc3cc(OC)c(OC4CCN(C5COC5)CC4(F)F)cc23)c1F (racemic) [Compound 2, (R/S)-6-((3,3-difluoro-1-(oxetan-3-yl)piperidin-4-yl)oxy)-N-(3-ethynyl-2-fluorophenyl)-7-methoxyquinazolin-4-amine]	
> 0.3	< 1 nM	[2H]C([2H])([2H])Oc1cc2ncnc(Nc3cccc(Cl)c3F)c2cc1OC1CCN(C2COC2)CC1(F)F (racemic) [Compound 3, (R/S)—N-(3-chloro-2-fluorophenyl)-6-((3,3-difluoro-1-(oxetan-3-yl)piperidin-4-yl)oxy)-7-(methoxy-d3)quinazolin-4-amine]	
> 0.3	< 1 nM	COc1cc2ncnc(Nc3cccc(Cl)c3F)c2cc1O[C@@H]1CCN(C2COC2)CC1(F)F [Compound 11, (R)—N-(3-chloro-2-fluorophenyl)-6-((3,3-difluoro-1-(oxetan-3-yl)piperidin-4-yl)oxy)-7-methoxyquinazolin-4-amine]	
> 0.3		[2H]C([2H])([2H])Oc1cc2ncnc(Nc3cccc(C#C)c3F)c2cc1O[C@H]1CCN(C2COC2)CC1(F)F [Compound 18, (S)-6-((3,3-difluoro-1-(oxetan-3-yl)piperidin-4-yl)oxy)-N-(3-ethynyl-2-fluorophenyl)-7-(methoxy-d3)quinazolin-4-amine]	
> 0.3	< 1 nM	[2H]C([2H])([2H])Oc1cc2ncnc(Nc3ccc(F)c(Cl)c3F)c2cc1OC1CCN(C2COC2)CC1(F)F (racemic) [Compound 9, (R/S)—N-(3-chloro-2,4-difluorophenyl)-6-((3,3-difluoro-1-(oxetan-3-yl)piperidin-4-yl)oxy)-7-(methoxy-d3)quinazolin-4-amine]	inhibiting PC-9 tumor cell growth compared with Iressa (PC-9 tumor cell): more effective than Iressa
> 0.3		C#Cc1c(F)ccc(Nc2ncnc3cc(OC)c(O[C@@H]4CCN(C)CC4(F)F)cc23)c1F [Compound 19, (R)-6-((3,3-difluoro-1-methylpiperidin-4-yl)oxy)-N-(3-ethynyl-2,4-difluorophenyl)-7-methoxyquinazolin-4-amine]	
> 0.3		C#Cc1c(F)ccc(Nc2ncnc3cc(OC)c(O[C@@H]4CCN(C5COC5)CC4(F)F)cc23)c1F [Compound 24, (R)-6-((3,3-difluoro-1-(oxetan-3-yl)piperidin-4-yl)oxy)-N-(3-ethynyl-2,4-difluorophenyl)-7-methoxyquinazolin-4-amine]	

SMILES	Kp at 4 h [1]	IC50 (PC-9 tumor cell)	also measured
COc1cc2ncnc(Nc3ccc(F)c(Cl)c3)c2cc1OCCCN1CCOCC1 [Iressa, gefitinib]	< 0.05		P-glycoprotein efflux substrate (P-glycoprotein): yes; survival (no death or bodyweight loss less than 18%), mice at D 20 (PC-9-luc tumor cells; D 20 post tumor implantation): 8; survival, mice at D 24 (PC-9-luc tumor cells; D 24 post tumor implantation): 7; survival, mice at D 27 (PC-9-luc tumor cells; D 27 post tumor implantation): 7; survival, mice at D 28 (PC-9-luc tumor cells; D 28 post tumor implantation): 7; survival, mice at D 30 (PC-9-luc tumor cells; D 30 post tumor implantation): 7; survival, mice at D 31 (PC-9-luc tumor cells; D 31 post tumor implantation): 4
